Experimental findings from patent US20120083522A1, “MODULATION OF INFLAMMATORY RESPONSES BY FACTOR XI” (Isis Pharmaceuitcals, inc., priority 2009, published 2012) are described below.

Holding throughout (format): in vivo
The subject of series [1] is IL-1β, IL-6, IFN-γ, TNF-α, IL-8, MIP-1α, MCP-1, MIP-10, RANTES. As to the kind of experiment: Cynomolgus monkeys: cytokine and chemokine assays (Example 30). The method, then:
(§1) Groups, each consisting of two male and two female monkeys, were injected subcutaneously with 25 mg/kg of ISIS 416850, ISIS 449709, ISIS 445522, ISIS 449710, ISIS 449707, ISIS 449711, ISIS 449708, 416858 and ISIS 445531. Antisense oligonucleotide was administered to the monkeys at 25 mg/kg three times per week for week 1 and 25 mg/kg twice per week for weeks 2 to 8. A control group, consisting of two male and two female monkeys was injected subcutaneously with PBS according to the same dosing regimen. Body weights were taken 14 days and 7 days before the start of treatment and were then measured weekly throughout the treatment period. Blood samples were collected 14 days and 5 days before the start of treatment and subsequently several times during the dosing regimen for measurement of various hematologic factors. On day 55, the monkeys were euthanized by exsanguination while under deep anesthesia, and organs harvested for further analysis.
Blood samples obtained from all monkey groups were sent to Pierce Biotechnology (Woburn, Mass.) for measurements of chemokine and cytokine levels. Levels of IL-1β, IL-6, IFN-γ, and TNF-α were measured using the respective primate antibodies and levels of IL-8, MIP-1α, MCP-1, MIP-10 and RANTES were measured using the respective cross-reacting human antibodies. Measurements were taken 14 days before the start of treatment and on day 55, when the monkeys were euthanized.

The nature of series [2]: Cynomolgus monkeys: body and organ weights (Example 29). The settings on record: for Body weight: escalating doses 5, 10, 25 mg/kg s.c. The procedure: (§2) Groups, each consisting of two male and three female monkeys, were injected subcutaneously with ISIS 416838, ISIS 416850, ISIS 416858, ISIS 416864, or ISIS 417002 in escalating doses. Antisense oligonucleotide was administered to the monkeys at 5 mg/kg three times per a week for week 1; 5 mg/kg twice per week for weeks 2 and 3; 10 mg/kg three times per week for week 4; 10 mg/kg twice per week for weeks 5 and 6; 25 mg/kg three times per week for week 7; and 25 mg/kg twice per week for weeks 8, 9, 10, 11, and 12. One control group, consisting of two male and three female monkeys, was injected subcutaneously with PBS according to the same dosing regimen. An additional experimental group, consisting of two male and three female monkeys, was injected subcutaneously with ISIS 416850 in a chronic, lower dose regimen. Antisense oligonucleotide was administered to the monkeys at 5 mg/kg three times per week for week 1; 5 mg/kg twice per week for week 2 and 3; 10 mg/kg three times per week for week 4; and 10 mg/kg twice per week for weeks 5 to 12. Body weights were measured weekly. Blood samples were collected 14 days and 5 days before the start of treatment and subsequently once per week for Factor XI protein activity analysis in plasma and measurement of various hematologic factors. On day 85, the monkeys were euthanized by exsanguination while under deep anesthesia, and organs harvested for further analysis.
Body weights were taken once weekly throughout the dosing regimen. […] Organ weights were taken after the animals were euthanized and livers, kidneys and spleens were harvested and weighed. […] The ISIS oligonucleotide, ISIS 416850, given with the chronic dose regimen is distinguished from the other oligonucleotides with an asterisk (*).

In series [3] the test system is Factor XI protein. As to the kind of experiment: Cynomolgus monkeys: plasma Factor XI protein ELISA (Example 29). The settings on record: for Inhibition of Factor XI protein relative to the PBS control: escalating doses 5, 10, 25 mg/kg s.c. The method, then:
as §2
(§3) Plasma samples from all monkey groups taken on different days were analyzed by a sandwich-style ELISA assay (Affinity Biologicals Inc.) using an affinity-purified polyclonal anti-Factor XI antibody as the capture antibody and a peroxidase-conjugated polyclonal anti-Factor XI antibody as the detecting antibody. Monkey plasma was diluted 1:50 for the assay. Peroxidase activity was expressed by incubation with the substrate o-phenylenediamine. The color produced was quantified using a microplate reader at 490 nm and was considered to be proportional to the concentration of Factor XI in the samples.
The results are presented in Table 122, expressed as percentage reduction relative to that of the PBS control.

Series [4] concerns Factor XI protein. Description: Cynomolgus monkeys: plasma Factor XI protein ELISA (Example 30). The settings on record: cynomolgus monkeys, Example 30. The procedure:
as §1, §3
The results are presented in Table 148, expressed as percentage reduction relative to that of the PBS control.
(In an ELISA, binding on a coated surface is turned into a signal by an enzyme label.)

The test system of a further series is Factor XI mRNA. As to the kind of experiment: Cynomolgus monkeys, 25 mg/kg: liver Factor XI RNA analysis (Example 30). To be noted: cynomolgus monkeys, day 55, in comparison to the PBS control. The procedure:
as §1
On day 55, RNA was extracted from liver tissue for real-time PCR analysis of Factor XI using primer probe set LTS00301. Results are presented as percent inhibition of Factor XI, relative to PBS control.

A short description of series [5]: Cynomolgus monkeys: hematology assays (Example 29). The procedure:
as §2
The ISIS oligonucleotide, ISIS 416850, given with the chronic dose regimen is distinguished from the other oligonucleotides with an asterisk (*).

The nature of series [6]: Tolerability in CD1 mice: body and organ weight (Example 25). The settings on record: 50 mg/kg s.c. twice per week for 6 weeks.
Where [7] appears, read: day −14 (before start of treatment).

In the oligonucleotide strings, read from the 5' end, every base follows the letter of its sugar. An asterisk marks phosphorothioate; unmarked linkages are phosphodiester. Other units and linkages are bracketed, terminal groups are in braces. A string of capitals states the bases alone. e = 2'-O-(2-methoxyethyl) (MOE); [5mC] = 5-methylcytosine; d = 2'-deoxy (DNA)

For the substance “ISIS 416858: gapmer of Table 8 (antisense eA*e[5mC]*eG*eG*e[5mC]*dA*dT*dT*dG*dG*dT*dG*d[5mC]*dA*d[5mC]*eA*eG*eT*eT*eT)”, the IL-1β level in series [1] (25 mg/kg s.c., day 55) amounted to 28 pg/mL; in series [1] (setting [7]), 103 pg/mL. The MIP-1β level in series [1] (25 mg/kg s.c., day 55) is 47 pg/mL; in series [1] (setting [7]), 37 pg/mL. For the same substance, the “spleen weight (in words)” value in series [2] (Example 29) is listed as “increase in spleen weight”. For the same substance, the Kidney weight in series [2] (after euthanasia) is listed as 13 g. The substance further gave a Liver weight in series [2] (after euthanasia) of 60 g. The same substance registered a Spleen weight in series [2] (after euthanasia) of 12 g. The Body weight in series [2] (day 1) was determined as 2912 g; in series [2] (day 8), 2740 g; in series [2] (day 15), 2760 g; in series [2] (day 22) it was 2800 g; in series [2] (day 29), 2763 g; in series [2] (day 36), 2584 g. The Body weight in series [2] (day 43) amounted to 2607 g; in series [2] (day 50), 2646 g; in series [2] (day 57), 2617 g; in series [2] (day 64), 2618 g; in series [2] (day 71) it was 2865 g; in series [2] (day 78), 2713 g. Further, the “Factor XI protein levels (in words)” value with Factor XI protein [3] (Example 29) and with Factor XI protein [4] was “time-dependent decrease in protein levels” in each case. Besides, the “Inhibition of Factor XI protein relative to the PBS control” value with Factor XI protein [3] (day 8) was found to be 6%; in the series with Factor XI protein [3] (day 15) it was 16%; in the series on Factor XI protein [3] (day 22), 23%; with Factor XI protein [3] (day 29) it was 28%; in the series with Factor XI protein [3] (day 36) it was 35%; in the series on Factor XI protein [3] (day 43) it was 39%. Besides, the “Inhibition of Factor XI protein relative to the PBS control” value in the series on Factor XI protein [3] (day 50) stood at 49%; in the series with Factor XI protein [3] (day 57) it was 60%; with Factor XI protein [3] (day 64), 68%; with Factor XI protein [3] (day 71), 71%; in the series on Factor XI protein [3] (day 78) it was 73%; in the series with Factor XI protein [3] (day 85), 78%. Moreover, the “Inhibition of Factor XI protein relative to the PBS control” value with Factor XI protein [3] (day −5 (before treatment)) and with Factor XI protein [3] (day −14 (before treatment)) was 0% each time. For the same substance, the “Factor XI mRNA in liver (in words)” value with Factor XI mRNA is given as “significant reduction of Factor XI mRNA”. The platelet count in series [5] (day 8) worked out at 391000 µL⁻¹; in series [5] (day 15), 400000 µL⁻¹; in series [5] (day 22), 316000 µL⁻¹; in series [5] (day 29), 336000 µL⁻¹; in series [5] (day 36), 371000 µL⁻¹; in series [5] (day 43), 342000 µL⁻¹. In addition, the platelet count came to 331000 µL⁻¹ in series [5] (day 50); 333000 µL⁻¹ in series [5] (day 57); 295000 µL⁻¹ in series [5] (day 64); 286000 µL⁻¹ in series [5] (day 71); 262000 µL⁻¹ in series [5] (day 78); 267000 µL⁻¹ in series [5] (day 85). Besides, the platelet count was 463000 µL⁻¹ in series [5] (day −5) and 419000 µL⁻¹ in series [5] (day −14).
As to “ISIS 445531: microwalk gapmer of Table 51 (antisense eG*eG*e[5mC]*eA*eT*dT*dG*dG*dT*dG*d[5mC]*dA*d[5mC]*eA*eG*eT*eT*eT)”, in series [1] (25 mg/kg s.c., day 55), the IL-1β level amounted to 155 pg/mL and the MIP-1β level is on record as 84 pg/mL. In series [1] (setting [7]), this substance showed an IL-1β level of 101 pg/mL and an MIP-1β level of 22 pg/mL. In addition, the “Body weight (increase over PBS control weight before start of treatment)” value in series [6] turned out to be 10 g. In series [6] (end of study), the “Kidney weight as percentage of body weight” value is recorded as 1.5%, the “Liver weight as percentage of body weight” value came to 6% and the “Spleen weight as percentage of body weight” value worked out at 0.5%. Besides, the “Factor XI mRNA in liver (in words)” value in the series on Factor XI mRNA is reported as “significant reduction of Factor XI mRNA”.
In series [1] (25 mg/kg s.c., day 55), “ISIS 449707: microwalk gapmer of Table 53 (antisense e[5mC]*eA*e[5mC]*eA*dG*dT*dT*dT*d[5mC]*dT*dG*dG*e[5mC]*eA*eG*eG)” displayed an IL-1β level of 97 pg/mL and an MIP-1β level of 49 pg/mL. In addition, in series [1] (setting [7]), the IL-1β level was determined as 115 pg/mL and the MIP-1β level worked out at 13 pg/mL. Further, the “Factor XI mRNA in liver (in words)” value with Factor XI mRNA was “significant reduction of Factor XI mRNA”.
The corresponding values for “ISIS 449708: microwalk gapmer of Table 53 (antisense eA*e[5mC]*eA*dG*dT*dT*dT*d[5mC]*dT*dG*dG*e[5mC]*eA*eG)” are 131 pg/mL, 128 pg/mL, 35 pg/mL, 19 pg/mL and “significant reduction of Factor XI mRNA”.
As to “ISIS 449709: microwalk gapmer of Table 53 (antisense eG*e[5mC]*eA*e[5mC]*dA*dG*dT*dT*dT*d[5mC]*dT*dG*dG*d[5mC]*eA*eG*eG*e[5mC])”, the IL-1β level was 181 pg/mL in series [1] (25 mg/kg s.c., day 55) and 137 pg/mL in series [1] (setting [7]). Also, the MIP-1β level in series [1] (25 mg/kg s.c., day 55) was 47 pg/mL; in series [1] (setting [7]), 14 pg/mL. Besides, in the series with Factor XI protein [4], the “Factor XI protein levels (in words)” value is given as “time-dependent decrease in protein levels”. Also, the “Factor XI mRNA in liver (in words)” value with Factor XI mRNA was “significant reduction of Factor XI mRNA”.
In series [1] (25 mg/kg s.c., day 55), “ISIS 449710: microwalk gapmer of Table 53 (antisense e[5mC]*eA*e[5mC]*dA*dG*dT*dT*dT*d[5mC]*dT*dG*dG*d[5mC]*eA*eG*eG)” had an IL-1β level of 286 pg/mL and an MIP-1β level of 53 pg/mL. Also, in series [1] (setting [7]), the IL-1β level is reported as 271 pg/mL and the MIP-1β level is 18 pg/mL. In addition, the “Factor XI mRNA in liver (in words)” value in the series with Factor XI mRNA is given as “significant reduction of Factor XI mRNA”.
